The target of one series is T1, IKKβ (Homo sapiens, UniProt O14920).
T1 sequence (O14920 1-756): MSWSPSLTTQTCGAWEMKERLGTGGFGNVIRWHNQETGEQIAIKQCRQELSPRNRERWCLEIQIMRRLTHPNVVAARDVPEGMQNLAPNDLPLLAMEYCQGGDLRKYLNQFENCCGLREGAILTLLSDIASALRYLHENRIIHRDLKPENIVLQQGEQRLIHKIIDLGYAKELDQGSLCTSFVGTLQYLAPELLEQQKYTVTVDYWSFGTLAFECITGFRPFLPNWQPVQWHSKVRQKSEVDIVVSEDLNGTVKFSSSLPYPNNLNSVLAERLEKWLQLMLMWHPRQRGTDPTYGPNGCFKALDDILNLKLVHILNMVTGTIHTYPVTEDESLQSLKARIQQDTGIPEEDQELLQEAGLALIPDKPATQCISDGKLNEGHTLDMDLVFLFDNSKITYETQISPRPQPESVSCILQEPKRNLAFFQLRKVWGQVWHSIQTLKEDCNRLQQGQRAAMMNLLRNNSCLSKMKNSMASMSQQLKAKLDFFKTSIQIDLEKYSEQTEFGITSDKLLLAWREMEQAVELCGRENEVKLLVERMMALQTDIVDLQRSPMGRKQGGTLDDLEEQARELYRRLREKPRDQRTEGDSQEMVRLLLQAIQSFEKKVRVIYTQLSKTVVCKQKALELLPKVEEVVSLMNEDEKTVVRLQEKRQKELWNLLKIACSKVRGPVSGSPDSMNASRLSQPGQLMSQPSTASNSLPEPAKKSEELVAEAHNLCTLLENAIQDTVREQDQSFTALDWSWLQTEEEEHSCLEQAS
Put plainly: in-house DELFIA kinase assay, IKKβ. Format: biochemical.

The next series concerns the target T2, MKK7 P (Homo sapiens, UniProt O14733).
T2 sequence (O14733 1-419): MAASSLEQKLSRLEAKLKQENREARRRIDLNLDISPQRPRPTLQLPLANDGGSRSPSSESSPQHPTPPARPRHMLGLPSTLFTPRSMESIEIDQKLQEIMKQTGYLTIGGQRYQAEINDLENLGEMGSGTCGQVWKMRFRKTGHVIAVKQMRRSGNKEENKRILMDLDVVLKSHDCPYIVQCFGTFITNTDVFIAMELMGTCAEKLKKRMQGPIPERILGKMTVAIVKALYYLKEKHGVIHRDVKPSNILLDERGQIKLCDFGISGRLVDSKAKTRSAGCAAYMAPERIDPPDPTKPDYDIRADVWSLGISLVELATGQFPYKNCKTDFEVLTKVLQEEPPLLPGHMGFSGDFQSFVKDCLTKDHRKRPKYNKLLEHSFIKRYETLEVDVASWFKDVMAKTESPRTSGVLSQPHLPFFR
Nature of the series: kinome profiling at 1 μM, MKK7. Format: biochemical. The text has this: (§1) We profiled three compounds from the series across the kinome (FIG. 11). […] To identify the structural drivers for CDK inhibition, we obtained X-ray crystal structures of 5 y and 6 g SU1336 and SU1349 with CDK-2 (FIG. 12A) to potentially identify possible routes towards introducing selectivity for IKKα over the CDK enzymes as well as IKKβ. […] All three derivatives form complexes with CDK2 with the pyrrolo[2,3 -b]pyridine H-bonding to GK+3 (Leu 83 ) and the aminoindazole projected towards the G-loop (FIG. 12A), forming H-bonds with Glu 51 and Lys 33 at the back of the pocket. The adoption of the 4 SU1253 -type orientation, rather than the flipped pose observed in IKKα, is probably facilitated by Tr-stacking between the aminoindazole and the GK residue, which in the CDKs is Phe, rather than Met. […] For 6 g SU1349, the hydrophobic pendant benzyloxy group points out into solvent, but can form face-to-edge Tr-Tr interactions with Phe 82 and His 84 from the hinge. Exchanging the hydrophobic pendant benzyloxy group for the morpholinoethyl-containing substituent in 5 y SU1336 removes any direct interaction with these hinge residues, preferring to sit in a more solvent-exposed position, as befits a basic side chain that will be protonated at physiological pH (FIG. 12B).

A short description of series [1]: mouse hepatocyte clearance (cryopreserved pooled mouse CD1 hepatocytes). Format: in vitro ADME. The settings on record: mouse, hepatocytes; 1 μM; 0.5×10^6 cells/mL; 37° C. The procedure:
Pharmacokinetic studies were contracted to Sygnature Discovery Limited. Intrinsic clearance and half life were determined using cryopreserved pooled mouse CD1 hepatocytes. Test compounds were analysed at 1 μM in Williams Media E buffer (0.01 % DMSO) at a cell density of 0.5×10^6 cells mL^−1 . Cells were incubated at 37° C. for one hour with shaking and compound depletion was measured by LC-MS/MS at six timepoints (0.25, 5, 10, 20, 40, and 60 minutes).

The next series has as its target T3, PRAK (Homo sapiens, UniProt Q8IW41).
T3 sequence (Q8IW41 1-473): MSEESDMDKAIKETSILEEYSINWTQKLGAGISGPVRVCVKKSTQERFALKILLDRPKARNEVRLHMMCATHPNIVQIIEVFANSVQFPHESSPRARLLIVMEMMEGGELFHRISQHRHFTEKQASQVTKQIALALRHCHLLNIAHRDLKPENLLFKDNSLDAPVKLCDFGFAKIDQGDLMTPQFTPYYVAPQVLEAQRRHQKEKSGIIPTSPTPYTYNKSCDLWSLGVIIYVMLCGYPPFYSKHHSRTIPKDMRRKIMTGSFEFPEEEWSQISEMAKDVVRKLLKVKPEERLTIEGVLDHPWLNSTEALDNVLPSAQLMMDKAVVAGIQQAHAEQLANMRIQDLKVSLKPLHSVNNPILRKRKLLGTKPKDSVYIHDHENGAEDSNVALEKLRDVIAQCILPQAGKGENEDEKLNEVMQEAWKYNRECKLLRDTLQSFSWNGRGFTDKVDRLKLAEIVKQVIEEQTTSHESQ
Nature of the series: kinome profiling at 1 μM, PRAK. Format: biochemical.
Description: as §1

In the next series the test system is panel of kinases. Put plainly: kinome profiling at 1 μM. Format: biochemical.
Description: as §1
Black, 4 SU1253; grey, 5 r SU1261; diagonal stripes, 6 g SU1349. […] All tested compounds (4 SU1253, 5 r SU1261 and 6 g SU1349 ) inhibited CDK5 and CDK9 with >80 %.

Some results are limits rather than exact numbers.

`Nc1n[nH]c2ccc(-c3ccnc4[nH]c(-c5ccnc(OCc6ccccc6)c5)cc34)cc12` [6g SU1349, 5-(2-(2-(Benzyloxy)pyridin-4-yl)-1 H-pyrrolo[2,3-b]pyridin-4-yl)-1 H-indazol-3-amine]: the affinity on IKKβ, expressed as Ki, was 3350 nM. The “off-target inhibition of MKK7, in words” value at MKK7 P (1 μM, compared with 5r SU1261) is recorded as “significantly reduced off-target inhibition”. In addition, in series [1], the hepatocyte CLint amounted to 27 µL/min/1e6 cells. Further, on PRAK (compared with 5r SU1261), the “off-target inhibition of PRAK, in words” value is “significantly reduced off-target inhibition”. Also, the “number of kinases inhibited by >80 %” value in the series on panel of kinases (panel of 253 kinases (FIG. 11)) worked out at 4 kinases.

Regarding `Nc1n[nH]c2ccc(-c3ccnc4[nH]c(-c5cccc(OCc6ccccc6)c5)cc34)cc12` [5r SU1261, 5-(2-(3-(benzyloxy)phenyl)-1 H-pyrrolo[2,3-b]pyridin-4-yl)-1 H-indazol-3-amine], the “IKKβ inhibition, in words” value on IKKβ is on record as “lowest activity against IKKβ”. The affinity on IKKβ, expressed as Ki, was 680 nM. Also, the inhibition at 1 µM at MKK7 P (read-out: % inhibition of MKK7) and against PRAK was > 80% throughout. This compound gave a hepatocyte CLint in series [1] of 38 µL/min/1e6 cells. Moreover, the “number of kinases inhibited by >80 %” value in the series on panel of kinases (panel of 231 kinases) and in the series on panel of kinases (panel of 253 kinases (FIG. 11)) was 10 kinases each time.

The record behind these values is patent US20260315487A1, “IKK-ALPHA INHIBITORS” (Cancer Research Technology Limited, priority 2023, published 2026).
